Series [1] can be described thus: Example 12 pharmacokinetics in healthy subjects: fed, sprinkled on applesauce, fasted. The series is classed as in vivo, human. The following applies: Example 7 capsule 350 mg LD/87.5 mg CD; for Tmax: median (min-max); for AUC(0-t): hour 0 to 24 hours; for Cmax: po, single oral dose. As for the experimental part: The dosage forms described in Example 7 were administered to 27 healthy male and female subjects between the ages of 18 and 55 with a body weight of at least 55 kg and body mass index of 18.5 to 30.0 kg/m^2 in a single site, open label, single dose, 3-treatment, 3-period, crossover study. The subjects were fasted overnight for at least 10 hours and received a single dose of 350 mg LD and 87.5 CD for each treatment separated by a 6 to 7 day washout period.
No additional food was allowed for at least 4 hours post dose.
Treatment B comprised the oral administration of one capsule prepared in accordance with Example 7 containing 350 mg LD and 87.5 mg CD wherein the contents of the capsule were sprinkled onto 1 tablespoon of applesauce. No additional food was allowed for at least 4 hours post dose.
Treatment C comprised the oral administration of one capsule prepared in accordance with Example 7 containing 350 mg LD and 87.5 mg CD with 240 mL of water. No food was allowed for at least 4 hours post dose.
For Treatments A and C the subjects were instructed to swallow the capsule intact and not to chew, divide or crush the tablet.
For Treatment B, the subjects were instructed to consume all the applesauce without crushing or chewing the beads.
Whole blood samples were taken prior to dosing and at 0.5, 1, 1.5, 2, 2.5, 3, 4, 5, 6, 7, 8, 10, 12, 16 and 24 hours post dose. The plasma samples were analyzed for concentrations of CD and LD by a validated liquid chromatography-tandem mass spectrometry (LC-MS/MS) method. Peak plasma (Cmax), area under the plasma concentration-time curve (AUCt and AUC∞), and time to maximum concentration (Tmax) for LD and CD were evaluated. The mean pharmacokinetic parameters are showing in the following table and in FIGS. 20 and 21.

For series [2] the following is noted: cited from earlier work.
Where [3] appears, read: both sexes, human, plasma, oral, Fasted, mean ± SD.
The mark [4] stands for this setting: both sexes, human, plasma, oral, Fasted, read-out: Tmax.
[5] abbreviates: both sexes, human, plasma, oral, Fed, mean ± SD.
The mark [6] stands for this setting: both sexes, human, plasma, oral, Fed, read-out: Tmax.
Where [7] appears, read: both sexes, human, plasma, oral, Sprinkled on Applesauce, mean ± SD.
[8] abbreviates: both sexes, human, plasma, Fasted, mean ± SD.
Where [9] appears, read: both sexes, human, plasma, Fed (high-fat breakfast), mean ± SD.
Setting [10] is: both sexes, human, plasma, Sprinkled on Applesauce, mean ± SD.

Read-outs that look alike come from different tables or passages of the source.

For orientation: half-life means the time needed for the level to fall by half in the phase considered. Read a low half-life as rapid decline. By AUC(0-t) is commonly meant the area under the concentration-time curve up to a stated or last time point. As usually defined, the Cmax is the peak of the concentration-time curve. Consider `C[C@@](Cc1ccc(O)c(O)c1)(NN)C(=O)O` [Carbidopa], for which the half-life in series [1] (setting [3]) is 3.9 ± 0.56 h; in series [1] (setting [5]) it was 3.86 ± 0.78 h; in series [1] (setting [7]), 3.95 ± 0.67 h. For the same molecule, the Tmax in series [1] (setting [4]) stood at 3 h; in series [1] (setting [6]), 4 h; in series [1] (both sexes, human, plasma, oral, Sprinkled on Applesauce, read-out: Tmax), 2.5 h. Besides, the exposure AUC(0-t) stood at 2180 ± 906 ng·h/mL in series [1] (setting [3]), 751 ± 205 ng·h/mL in series [1] (setting [5]) and 1910 ± 618 ng·h/mL in series [1] (setting [7]). Moreover, the maximum concentration (Cmax) stood at 404 ± 157 ng/mL in series [1] (setting [8]), 141 ± 41.1 ng/mL in series [1] (setting [9]) and 339 ± 91.8 ng/mL in series [1] (setting [10]).

`N[C@@H](Cc1ccc(O)c(O)c1)C(=O)O` [LD, levodopa]: the plasma half-life entry is “about 1.5 hours” in series [2] (orally administered with CD) and “about 50 minutes” in series [2] (orally administered without CD). In addition, the T1/2 in series [1] (Fed, mean ± SD) is 1.79 ± 0.3 h. The Tmax in series [1] (Sprinkled on Applesauce) is 0.5 (0.5-5.0) h; in series [1] (setting [4]), 2 h; in series [1] (setting [6]) it was 4 h. The half-life in series [1] (setting [3]) was 2 ± 0.3 h; in series [1] (setting [7]) it was 2.02 ± 0.31 h. Moreover, the values for the area under the curve AUC(0-t) in series [1] (setting [3]), in series [1] (setting [5]) and in series [1] (setting [7]) were 9120 ± 2150 ng·h/mL, 10600 ± 1430 ng·h/mL and 8330 ± 1960 ng·h/mL, respectively. Also, the peak concentration (Cmax) in series [1] (setting [8]) came to 1830 ± 385 ng/mL; in series [1] (setting [9]), 2190 ± 473 ng/mL; in series [1] (setting [10]), 1630 ± 409 ng/mL.

(Values after patent US12458616B2, “Levodopa dosing regimen” (Amneal Pharmaceuticals, LLC, priority 2020, dated 2025).)
